Reference: US20070232698A1, “Slimming Skin External Preparation and Cosmetic Containing the Same” (priority 2004, published 2007)

Legend:
[1] = test system: human skin tissue three dimensional model (TESTSKIN LSD-d)
Experimental: The test substances were each dissolved in Dulbecco's PBS (−) to give a 1% by mass solution of the test substance. The test substance solutions were placed, each 50 μL, to a tissue surface of human skin tissue three dimensional model (TESTSKIN™ LSD-d, available from TOYOBO CO., LTD.), and were incubated at 37° C. in a 5% CO2 atmosphere for 2 hours. Thereafter the test substance solutions were aspirated out, and the skin models were further incubated at 37° C. in a 5% CO2 atmosphere for 2, 6 or 12 hours. The skin models were sampled after the lapse of each of the incubation times. The skin models sampled at the incubation times were washed with Dulbecco's PBS (−), and the tissue surfaces on which the test substances had been placed were punched out with a punch 6 mm in diameter. The skin models were then homogenated in a HEPES buffer solution (pH: 7.2), and were quantitatively analyzed using a high performance liquid chromatography to determine the carnitine content in the skin model.
From the analysis results, the carnitine contents in the skin models (unit: nmol/mg skin protein) were obtained for the test substances at each of the incubation times.

[2] = test system: skin together with subcutaneous fat tissues; assay: Subcutaneous fat breakdown test (rat abdominal skin with subcutaneous fat in Franz diffusion cell); conditions: lower cell PBS (−), 37° C., average of three measurements, control (none) 20
Experimental: A male Wister rat, 10 weeks old, was shaved on the abdomen, and the skin was removed together with subcutaneous fat tissues and was placed in a Franz diffusion cell. An upper cell on the skin surface was filled with a buffer solution containing the Example 1 test substance, and a lower cell was filled with Dulbecco's PBS (−). The diffusion cell was held at 37° C. and was allowed to stand for 8 or 16 hours. After the lapse of each of the standing times, PBS (−) was withdrawn from the lower cell. The content of free glycerol resulting from the fat breakdown was measured with use of Glycerol Test E Wako. The results are averages of three measurements.
The free glycerol contents were measured in the same manner as in Example 3, except that the two carnitine and carnitine derivative 1) and 6) used in Example 4 were tested. The results are averages of three measurements.
The free glycerol contents were measured in the same manner as in Example 3, except that the three carnitine and carnitine derivatives 1), 7) and 8) used in Example 7 were tested. The results are averages of three measurements.

Mouse 3T3 adipocytes = assay: Measurement of fat metabolic activity for mouse 3T3 adipocytes (free glycerol in culture medium); type: cell-based; conditions: 250 μM test substance, medium recovered after 24 hours; control (none) = 100
Experimental: The five carnitine and carnitine derivatives 1) to 5) used in Example 1 were tested. The fat metabolic activity was measured and compared by quantitative determination of glycerol in the culture medium based on the fact that metabolism of the fat accumulated in adipocytes releases glycerol and free fatty acid to the culture medium.
Mouse 3T3 cells as the preadipocytes were disseminated on a 10 cm-diameter dish such that 1×10^4 cells were on the dish. […] Thereafter, the culture medium was replaced with a 10% FCS-containing DMEM culture medium that contained […] of dexamethasone, 0.5 mM of isobutylmethylxanthine and 10 μg/ml of insulin, and incubation was continued for another 2 days. Subsequently, the culture medium was replaced again with a 10% FCS-containing ordinary DMEM culture medium, and incubation was performed for another week, resulting in differentiation of the preadipocytes into adipocytes. Next, the culture medium was replaced with an ordinary culture medium that contained 250 μM of the carnitine or carnitine derivative of the five substances 1) to 5) used in Example 1, and the culture medium was recovered after 24 hours. The cells were washed with Dulbecco's PBS (−) and were recovered. Cells incubated in the absence of the test substances were used as the control. The glycerol content in the culture medium was quantitatively determined using Glycerol Test E Wako (Wako Pure Chemical Industries, Ltd.).
The fat metabolic activity for mouse 3T3 adipocytes was determined based on the free glycerol content in the same manner as in Example 2, except that the two carnitine and carnitine derivative 1) and 6) used in Example 4 were tested.
The fat metabolic activity for mouse 3T3 adipocytes was determined based on the free glycerol content in the same manner as in Example 2, except that the three carnitine and carnitine derivatives 1), 7) and 8) used in Example 7 were tested.

Row | SMILES | carnitine content in the skin model, After 2-hour incubation [1] [nmol/mg skin protein] | carnitine content in the skin model, After 6-hour incubation [1] [nmol/mg skin protein] | carnitine content in the skin model, After 12-hour incubation [1] [nmol/mg skin protein] | Free glycerol, After 8 hours [2] [µmol/mL] | Free glycerol, After 16 hours [2] [µmol/mL] | Free glycerol content (% relative to the control) (Mouse 3T3 adipocytes)
1 | CCCCCCCCCCCCCC(=O)O[C@H](CC(=O)O)C[N+](C)(C)C.[Cl-] [Test substance 3), Tetradecanoyl-L-carnitine hydrochloride] | 6 | 12 | 22 | 112 | 146 | 168 % relative to the control
2 | CCCCCCCCCCCCCCCC(=O)O[C@H](CC(=O)O)C[N+](C)(C)C.[Cl-] [Test substance 4), Hexadecanoyl-L-carnitine hydrochloride] | 6 | 10 | 23 | 125 | 170 | 180 % relative to the control
